# Measurements from PMC11762577 (Materials Today Bio, 2025).
# Key:
# U87-MG cells = test: CCK-8 cell viability / cytotoxicity assay in U87-MG cells; assay type: cell-based, human; conditions: incubation with U87-MG cells for 24 h
# [1] = assay type: in vivo, BALB/c nude mice; conditions: orthotopic glioma nude mice; 2.5 mg/kg Dox equivalent every three days; n = 5
smiles,measurement,setting,value
"COc1cccc2c1C(=O)c1c(O)c3c(c(O)c1C2=O)C[C@@](O)(C(=O)CO)C[C@@H]3O[C@H]1C[C@H](N)[C@H](O)[C@H](C)O1 [Dox, doxorubicin]","IC50 (equivalent Dox concentration), U87-MG cell viability",U87-MG cells,3.49 µg/mL
same,body weight of tumor-bearing mice,[1],decreased on day 12
